From ChEMBL document CHEMBL1145498, “A systematic interaction map of validated kinase inhibitors with Ser/Thr kinases” (Proc Natl Acad Sci U S A, 2007)

Columns and labels:
[1] = molecular target: Calcium/calmodulin-dependent protein kinase type II subunit beta (Homo sapiens) (UniProt Q13554)
[2] = molecular target: Calcium/calmodulin-dependent protein kinase type II subunit delta (Homo sapiens) (UniProt Q13557)
[3] = molecular target: T1, Calcium/calmodulin-dependent protein kinase type IV (Homo sapiens) (UniProt Q16566)
T1 sequence (whole entry): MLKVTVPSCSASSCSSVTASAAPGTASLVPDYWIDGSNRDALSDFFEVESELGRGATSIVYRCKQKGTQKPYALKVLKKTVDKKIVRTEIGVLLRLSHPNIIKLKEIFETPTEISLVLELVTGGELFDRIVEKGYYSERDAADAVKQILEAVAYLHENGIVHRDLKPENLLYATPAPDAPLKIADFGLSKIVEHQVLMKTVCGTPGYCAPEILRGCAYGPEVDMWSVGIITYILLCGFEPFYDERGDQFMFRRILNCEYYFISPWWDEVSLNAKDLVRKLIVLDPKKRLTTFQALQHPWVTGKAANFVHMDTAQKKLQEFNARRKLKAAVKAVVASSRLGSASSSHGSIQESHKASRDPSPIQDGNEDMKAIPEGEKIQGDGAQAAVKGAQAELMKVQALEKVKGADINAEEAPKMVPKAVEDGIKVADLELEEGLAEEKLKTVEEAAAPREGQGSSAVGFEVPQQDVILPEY

[4] = molecular target: Cyclin-dependent kinase 2 (Homo sapiens, UniProt P24941)
[5] = molecular target: Casein kinase I isoform gamma-2 (Homo sapiens) (UniProt P78368)
Casein kinase I isoform gamma-2 (Homo sapiens), sequence (P78368 whole entry, looked up, canonical isoform): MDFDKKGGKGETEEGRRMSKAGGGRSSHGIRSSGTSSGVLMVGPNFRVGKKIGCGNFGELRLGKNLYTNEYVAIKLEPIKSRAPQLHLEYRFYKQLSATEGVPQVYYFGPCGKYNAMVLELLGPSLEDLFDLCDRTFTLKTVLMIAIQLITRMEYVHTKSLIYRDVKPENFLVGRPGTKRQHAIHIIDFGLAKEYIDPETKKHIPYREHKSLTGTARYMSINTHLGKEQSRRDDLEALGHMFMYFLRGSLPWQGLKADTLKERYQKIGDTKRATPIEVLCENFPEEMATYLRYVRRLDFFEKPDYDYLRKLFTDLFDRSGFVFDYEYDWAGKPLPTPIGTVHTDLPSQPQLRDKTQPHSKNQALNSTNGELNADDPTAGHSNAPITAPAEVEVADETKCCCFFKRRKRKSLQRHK

[6] = molecular target: Casein kinase I isoform gamma-3 (Homo sapiens) (UniProt Q9Y6M4)
Casein kinase I isoform gamma-3 (Homo sapiens), sequence (Q9Y6M4 whole entry, looked up, canonical isoform): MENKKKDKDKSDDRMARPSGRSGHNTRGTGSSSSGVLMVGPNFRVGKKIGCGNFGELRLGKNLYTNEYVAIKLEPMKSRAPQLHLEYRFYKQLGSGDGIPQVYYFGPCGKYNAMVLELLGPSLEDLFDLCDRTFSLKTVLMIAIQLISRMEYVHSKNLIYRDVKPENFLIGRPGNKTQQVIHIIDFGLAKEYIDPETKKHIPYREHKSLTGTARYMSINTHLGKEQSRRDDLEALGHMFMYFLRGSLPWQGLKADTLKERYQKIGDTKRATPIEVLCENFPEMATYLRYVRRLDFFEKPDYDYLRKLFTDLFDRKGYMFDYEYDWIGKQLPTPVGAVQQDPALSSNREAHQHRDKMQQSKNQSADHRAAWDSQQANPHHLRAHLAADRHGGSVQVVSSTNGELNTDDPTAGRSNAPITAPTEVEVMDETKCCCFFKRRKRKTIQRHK

[7] = molecular target: Serine/threonine-protein kinase Nek6 (Homo sapiens) (UniProt Q9HC98)
Serine/threonine-protein kinase Nek6 (Homo sapiens), sequence (Q9HC98 whole entry): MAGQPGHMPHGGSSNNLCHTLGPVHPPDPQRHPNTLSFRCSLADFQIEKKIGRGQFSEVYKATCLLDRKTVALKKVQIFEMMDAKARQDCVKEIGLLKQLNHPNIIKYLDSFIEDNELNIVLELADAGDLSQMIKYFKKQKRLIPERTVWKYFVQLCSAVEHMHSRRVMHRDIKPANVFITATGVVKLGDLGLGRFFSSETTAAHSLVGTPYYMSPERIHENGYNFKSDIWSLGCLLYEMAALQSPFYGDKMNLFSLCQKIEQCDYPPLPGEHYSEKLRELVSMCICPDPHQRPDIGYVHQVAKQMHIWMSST

[8] = molecular target: Serine/threonine-protein kinase PAK 4 (Homo sapiens) (UniProt O96013)
Serine/threonine-protein kinase PAK 4 (Homo sapiens), sequence (O96013 whole entry, looked up): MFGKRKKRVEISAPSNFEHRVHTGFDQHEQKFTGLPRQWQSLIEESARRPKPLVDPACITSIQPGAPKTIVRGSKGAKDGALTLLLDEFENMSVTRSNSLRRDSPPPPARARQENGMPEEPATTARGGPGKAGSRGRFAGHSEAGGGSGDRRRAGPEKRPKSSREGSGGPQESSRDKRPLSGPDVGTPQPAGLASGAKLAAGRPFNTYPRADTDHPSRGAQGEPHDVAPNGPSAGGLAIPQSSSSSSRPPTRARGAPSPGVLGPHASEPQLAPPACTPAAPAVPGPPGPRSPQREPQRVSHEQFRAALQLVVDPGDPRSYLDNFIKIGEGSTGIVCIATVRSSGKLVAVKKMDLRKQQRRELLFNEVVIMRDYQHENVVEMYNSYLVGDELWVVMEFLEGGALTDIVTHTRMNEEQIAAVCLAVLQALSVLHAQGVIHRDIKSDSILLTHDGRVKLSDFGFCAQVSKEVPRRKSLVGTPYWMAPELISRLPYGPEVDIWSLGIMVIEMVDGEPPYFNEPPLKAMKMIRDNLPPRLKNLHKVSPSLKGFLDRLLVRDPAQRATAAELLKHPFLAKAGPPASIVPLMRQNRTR

[9] = molecular target: Serine/threonine-protein kinase PAK 6 (Homo sapiens) (UniProt Q9NQU5)
Serine/threonine-protein kinase PAK 6 (Homo sapiens), sequence (Q9NQU5 whole entry, looked up): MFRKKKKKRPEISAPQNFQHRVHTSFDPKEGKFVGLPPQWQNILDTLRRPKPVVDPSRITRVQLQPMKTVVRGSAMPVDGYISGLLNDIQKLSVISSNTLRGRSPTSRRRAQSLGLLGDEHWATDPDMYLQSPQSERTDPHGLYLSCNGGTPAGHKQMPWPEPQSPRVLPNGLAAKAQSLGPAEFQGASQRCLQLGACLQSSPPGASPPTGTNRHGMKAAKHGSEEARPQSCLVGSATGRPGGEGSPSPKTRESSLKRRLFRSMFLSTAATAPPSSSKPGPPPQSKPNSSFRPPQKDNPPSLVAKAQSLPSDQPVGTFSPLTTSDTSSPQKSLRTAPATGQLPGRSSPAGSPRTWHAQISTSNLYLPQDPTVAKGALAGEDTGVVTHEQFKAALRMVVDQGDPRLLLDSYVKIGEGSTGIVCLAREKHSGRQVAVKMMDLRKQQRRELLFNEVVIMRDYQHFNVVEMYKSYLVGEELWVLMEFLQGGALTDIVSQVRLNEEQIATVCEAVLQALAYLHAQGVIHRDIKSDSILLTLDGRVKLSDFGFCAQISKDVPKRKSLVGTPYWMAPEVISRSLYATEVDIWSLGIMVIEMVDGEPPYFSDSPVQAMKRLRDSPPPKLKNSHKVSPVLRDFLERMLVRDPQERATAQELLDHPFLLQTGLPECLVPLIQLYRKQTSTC

[10] = molecular target: T2, 3-phosphoinositide-dependent protein kinase 1 (Homo sapiens) (UniProt O15530)
T2 sequence (whole entry): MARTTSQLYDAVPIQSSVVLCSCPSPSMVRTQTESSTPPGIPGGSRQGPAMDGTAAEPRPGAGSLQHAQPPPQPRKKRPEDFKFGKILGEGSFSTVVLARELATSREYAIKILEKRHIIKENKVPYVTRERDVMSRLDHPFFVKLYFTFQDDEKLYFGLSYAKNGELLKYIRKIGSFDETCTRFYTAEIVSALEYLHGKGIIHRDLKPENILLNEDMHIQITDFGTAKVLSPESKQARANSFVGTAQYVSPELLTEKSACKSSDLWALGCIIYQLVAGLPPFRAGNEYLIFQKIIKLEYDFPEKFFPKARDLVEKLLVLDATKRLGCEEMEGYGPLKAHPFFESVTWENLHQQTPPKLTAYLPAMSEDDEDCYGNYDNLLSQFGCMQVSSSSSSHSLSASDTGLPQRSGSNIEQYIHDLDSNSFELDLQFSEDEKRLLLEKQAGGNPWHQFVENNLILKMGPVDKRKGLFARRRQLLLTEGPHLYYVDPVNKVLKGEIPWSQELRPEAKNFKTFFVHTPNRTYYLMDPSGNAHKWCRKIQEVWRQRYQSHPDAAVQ

[11] = molecular target: T3, Serine/threonine-protein kinase PLK4 (Homo sapiens) (UniProt O00444)
T3 sequence (whole entry): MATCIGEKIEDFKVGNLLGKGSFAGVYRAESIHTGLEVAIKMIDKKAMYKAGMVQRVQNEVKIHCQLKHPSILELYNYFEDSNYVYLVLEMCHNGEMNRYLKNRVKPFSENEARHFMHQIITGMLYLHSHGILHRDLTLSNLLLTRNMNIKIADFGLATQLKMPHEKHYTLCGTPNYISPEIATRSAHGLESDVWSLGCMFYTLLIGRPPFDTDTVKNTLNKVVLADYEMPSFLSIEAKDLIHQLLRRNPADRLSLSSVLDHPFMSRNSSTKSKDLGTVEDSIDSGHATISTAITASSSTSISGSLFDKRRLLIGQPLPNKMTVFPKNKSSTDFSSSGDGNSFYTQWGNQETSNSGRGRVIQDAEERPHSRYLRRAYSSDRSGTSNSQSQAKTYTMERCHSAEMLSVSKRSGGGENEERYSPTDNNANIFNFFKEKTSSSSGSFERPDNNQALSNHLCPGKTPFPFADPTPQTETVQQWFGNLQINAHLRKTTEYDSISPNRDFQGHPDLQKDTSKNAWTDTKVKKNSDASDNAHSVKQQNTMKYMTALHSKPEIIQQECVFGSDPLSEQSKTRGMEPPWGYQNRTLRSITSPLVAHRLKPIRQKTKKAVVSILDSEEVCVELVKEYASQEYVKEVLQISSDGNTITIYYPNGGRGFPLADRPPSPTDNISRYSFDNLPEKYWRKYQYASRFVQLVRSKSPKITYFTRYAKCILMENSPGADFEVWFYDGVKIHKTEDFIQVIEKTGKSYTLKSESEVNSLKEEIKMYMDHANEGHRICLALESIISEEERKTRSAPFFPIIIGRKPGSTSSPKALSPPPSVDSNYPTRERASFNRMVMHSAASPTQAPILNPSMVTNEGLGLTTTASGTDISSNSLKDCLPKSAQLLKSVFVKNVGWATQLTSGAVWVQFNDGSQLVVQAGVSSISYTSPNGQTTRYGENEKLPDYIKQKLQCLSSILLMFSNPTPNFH

[12] = molecular target: TRAF2 and NCK-interacting protein kinase (Homo sapiens) (UniProt Q9UKE5)
TRAF2 and NCK-interacting protein kinase (Homo sapiens), sequence (Q9UKE5 whole entry, looked up): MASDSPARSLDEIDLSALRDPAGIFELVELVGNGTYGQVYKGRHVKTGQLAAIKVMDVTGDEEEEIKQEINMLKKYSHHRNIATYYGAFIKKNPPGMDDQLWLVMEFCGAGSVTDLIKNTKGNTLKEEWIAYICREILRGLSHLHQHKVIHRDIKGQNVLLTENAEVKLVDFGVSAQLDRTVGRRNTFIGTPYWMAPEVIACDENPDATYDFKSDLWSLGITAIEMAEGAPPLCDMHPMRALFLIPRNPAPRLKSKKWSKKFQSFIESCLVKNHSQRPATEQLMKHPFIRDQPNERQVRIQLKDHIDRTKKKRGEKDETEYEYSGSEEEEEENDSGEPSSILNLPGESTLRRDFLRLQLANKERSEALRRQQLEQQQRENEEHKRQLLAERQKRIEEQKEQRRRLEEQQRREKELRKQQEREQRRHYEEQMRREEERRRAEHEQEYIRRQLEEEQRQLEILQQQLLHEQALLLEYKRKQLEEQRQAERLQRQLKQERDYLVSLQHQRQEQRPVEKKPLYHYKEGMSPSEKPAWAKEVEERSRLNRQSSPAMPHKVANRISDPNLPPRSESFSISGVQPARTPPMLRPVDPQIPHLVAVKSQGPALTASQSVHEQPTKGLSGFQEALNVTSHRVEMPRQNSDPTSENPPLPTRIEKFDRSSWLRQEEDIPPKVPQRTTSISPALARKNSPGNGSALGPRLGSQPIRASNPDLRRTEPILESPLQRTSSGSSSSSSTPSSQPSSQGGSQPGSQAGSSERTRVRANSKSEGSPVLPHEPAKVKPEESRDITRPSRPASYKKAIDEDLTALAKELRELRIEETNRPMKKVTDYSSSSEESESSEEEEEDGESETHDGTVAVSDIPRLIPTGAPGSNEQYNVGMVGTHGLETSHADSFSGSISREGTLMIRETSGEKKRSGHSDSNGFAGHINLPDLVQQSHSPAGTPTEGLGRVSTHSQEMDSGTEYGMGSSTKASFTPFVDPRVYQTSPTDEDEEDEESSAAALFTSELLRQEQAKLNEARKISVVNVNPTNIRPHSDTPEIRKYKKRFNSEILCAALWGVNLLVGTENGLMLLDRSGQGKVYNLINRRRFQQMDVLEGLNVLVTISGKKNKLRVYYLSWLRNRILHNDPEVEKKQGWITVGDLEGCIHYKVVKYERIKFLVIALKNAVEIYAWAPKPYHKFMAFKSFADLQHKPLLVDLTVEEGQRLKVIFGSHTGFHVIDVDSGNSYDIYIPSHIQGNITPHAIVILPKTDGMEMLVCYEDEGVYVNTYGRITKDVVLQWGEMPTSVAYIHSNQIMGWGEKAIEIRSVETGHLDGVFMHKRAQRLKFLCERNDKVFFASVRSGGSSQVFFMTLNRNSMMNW

[13] = molecular target: T4, Serine/threonine-protein kinase VRK1 (Homo sapiens) (UniProt Q99986)
T4 sequence (whole entry): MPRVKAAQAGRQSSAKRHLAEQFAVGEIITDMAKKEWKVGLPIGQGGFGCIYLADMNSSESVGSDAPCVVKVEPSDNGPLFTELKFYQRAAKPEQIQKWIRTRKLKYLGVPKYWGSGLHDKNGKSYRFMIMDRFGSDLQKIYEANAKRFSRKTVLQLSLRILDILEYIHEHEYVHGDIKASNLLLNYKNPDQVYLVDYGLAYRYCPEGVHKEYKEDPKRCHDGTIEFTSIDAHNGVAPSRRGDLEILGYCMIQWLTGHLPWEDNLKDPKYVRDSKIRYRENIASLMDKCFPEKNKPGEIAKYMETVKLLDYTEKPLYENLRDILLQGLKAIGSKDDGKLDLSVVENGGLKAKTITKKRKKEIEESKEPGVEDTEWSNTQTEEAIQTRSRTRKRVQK

Calcium/calmodulin-dependent protein kinase type II subunit beta (Homo sapiens), sequence (Q13554 whole entry): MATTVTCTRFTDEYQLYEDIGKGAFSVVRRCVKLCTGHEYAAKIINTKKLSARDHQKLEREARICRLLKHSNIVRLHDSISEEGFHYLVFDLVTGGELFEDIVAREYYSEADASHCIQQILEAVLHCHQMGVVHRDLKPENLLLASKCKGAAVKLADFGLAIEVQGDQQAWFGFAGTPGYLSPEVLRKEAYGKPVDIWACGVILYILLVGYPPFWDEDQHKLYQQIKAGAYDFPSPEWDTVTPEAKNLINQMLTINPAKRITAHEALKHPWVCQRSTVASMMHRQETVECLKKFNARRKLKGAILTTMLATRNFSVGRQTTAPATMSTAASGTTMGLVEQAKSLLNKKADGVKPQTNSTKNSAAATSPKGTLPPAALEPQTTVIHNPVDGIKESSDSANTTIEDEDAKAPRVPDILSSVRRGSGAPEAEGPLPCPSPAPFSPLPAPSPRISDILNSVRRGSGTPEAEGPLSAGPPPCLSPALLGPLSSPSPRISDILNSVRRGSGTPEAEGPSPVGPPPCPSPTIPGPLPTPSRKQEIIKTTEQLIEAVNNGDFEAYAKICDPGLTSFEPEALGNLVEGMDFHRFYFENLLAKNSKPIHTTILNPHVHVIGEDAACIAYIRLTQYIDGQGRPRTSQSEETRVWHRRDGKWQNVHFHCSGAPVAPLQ
Calcium/calmodulin-dependent protein kinase type II subunit delta (Homo sapiens), sequence (Q13557 whole entry): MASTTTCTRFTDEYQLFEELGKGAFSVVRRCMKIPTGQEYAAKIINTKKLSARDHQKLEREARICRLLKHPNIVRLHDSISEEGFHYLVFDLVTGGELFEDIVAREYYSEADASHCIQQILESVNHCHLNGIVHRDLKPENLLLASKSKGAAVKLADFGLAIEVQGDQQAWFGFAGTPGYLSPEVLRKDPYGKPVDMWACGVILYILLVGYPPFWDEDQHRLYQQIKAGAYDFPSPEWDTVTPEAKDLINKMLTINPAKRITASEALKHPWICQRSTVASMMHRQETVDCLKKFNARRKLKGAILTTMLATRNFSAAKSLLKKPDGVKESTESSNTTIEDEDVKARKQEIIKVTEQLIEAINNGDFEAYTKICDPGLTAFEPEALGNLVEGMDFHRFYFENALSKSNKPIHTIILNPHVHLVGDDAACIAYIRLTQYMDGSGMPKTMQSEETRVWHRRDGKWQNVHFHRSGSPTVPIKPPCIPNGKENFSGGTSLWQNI

Row | Compound | ΔTm [1] [°C] | ΔTm [2] [°C] | ΔTm [3] [°C] | ΔTm [4] [°C] | ΔTm [5] [°C] | ΔTm [6] [°C] | ΔTm [7] [°C] | ΔTm [8] [°C] | ΔTm [9] [°C] | ΔTm [10] [°C] | ΔTm [11] [°C] | ΔTm [12] [°C] | ΔTm [13] [°C]
1 | CC(C)n1cnc2c(NCc3ccccc3)nc(NCCCO)nc21 | 0.1 | -0.1 | 0.4 | 0.9 | 1.1 | 1.1 | 0.4 | -0.6 | 0.6 | 0.1 | 0.3 | 0.4 | -0.1
2 | O=c1cc(-c2ccc(O)cc2)oc2cc(O)cc(O)c12 | 0.5 | 0.7 | 2.1 | 2.3 | 0.7 | 0.7 | 0.2 | 0.3 | 0.3 | -1.9 | 5.2 | 5.3 | 0.2
3 | NC(=O)c1ccc(-c2nc(-c3ccc4c(c3)OCCO4)c(-c3ccccn3)[nH]2)cc1 | 1 | 0.3 | -0.9 | 0.6 | 0.4 | 0.8 | -0.7 | 0.9 | 0 | -0.1 | 0.1 | -0.6 | 0.7
4 | O=C1Cc2c([nH]c3ccc([N+](=O)[O-])cc23)-c2ccccc2N1 | 0.3 | 0 | 0.8 | 4.4 | 0.8 | 0.9 | 0.8 | 2.1 | 3.1 | 0 | 6.9 | 6.1 | 0.2
5 | O=c1c(-c2ccc(F)cc2)c(-c2ccncc2)[nH]n1-c1ccc(Cl)cc1 | 0 | 0.1 | 0.4 | 0.2 | 0.7 | 0.5 | 0.8 | 0.7 | -0.4 | -1.2 | 1 | -0.2 | 0.8
6 | NC1=NC(=O)/C(=C2\CCNC(=O)c3[nH]c(Br)cc32)N1 [HYMENIALDISINE] | 0.4 | 0 | 0.1 | 1.5 | 5.6 | 3.5 | 0 | 1.6 | 1.2 | -0.2 | 3 | 4.7 | 2
7 | Cc1cncc2cccc(S(=O)(=O)N3CCCNC[C@@H]3C)c12 | 1.1 | -0.4 | 0.3 | 0.7 | 0.6 | 0.2 | 0 | 0.7 | 0.7 | -0.2 | 7 | 1 | 0.6
8 | CC(C)(C)c1cc(C=C2C(=O)C=CC2=O)cc(C(C)(C)C)c1O | -0.3 | 2.1 | -1.5 | 1.2 | 0.5 | 0.2 | 0.2 | 1.5 | -2.5 | -0.1 | 1 | -3.1 | -0.6
9 | O=c1c(-c2ccc(O)cc2)coc2cc(O)cc(O)c12 | 1.2 | 1.9 | -0.8 | 0.7 | 0.3 | 1.6 | 1 | 0.8 | -0.9 | 2.5 | 0.4 | 0.4 | 0.6

More lines, now with the values ahead:

Row | ΔTm [1] [°C] | ΔTm [2] [°C] | ΔTm [3] [°C] | ΔTm [4] [°C] | ΔTm [5] [°C] | ΔTm [6] [°C] | ΔTm [7] [°C] | ΔTm [8] [°C] | ΔTm [9] [°C] | ΔTm [10] [°C] | ΔTm [11] [°C] | ΔTm [12] [°C] | ΔTm [13] [°C] | Compound
10 | 2.1 | 2.8 | 5.5 | 9.1 | 2.6 | 2.7 | 1.2 | 3.4 | 2.9 | 0.8 | 10.9 | 5.9 | 1.7 | O=C1Nc2ccccc2/C1=C1/Nc2ccccc2/C1=N\O
11 | 1 | 0 | -0.2 | 2.5 | 0.3 | 0.8 | -0.9 | 1.5 | 0.7 | -0.1 | 0.1 | 0.5 | 0.5 | CN(C)CC1CCn2c(c(C3=C(c4c[nH]c5ccccc45)C(=O)NC3=O)c3ccccc32)C1 (configuration not stated)
12 | -0.2 | 0.2 | 0.2 | -0.8 | 2 | 2.4 | -0.2 | 1 | -0.5 | -0.2 | 0.2 | -0.9 | 1.1 | Nc1nccc(-c2c(-c3ccc(F)cc3)ncn2C2CCNCC2)n1
13 | 0.8 | 0.4 | 0.4 | 0.3 | 0.5 | 1.1 | 0.2 | 1.1 | 0 | -0.1 | 0.1 | 0.6 | 1.2 | Cc1cc2ncc(-c3ccccc3)nc2cc1C
14 | -0.6 | -0.6 | 0.7 | 0.1 | 0 | 1.1 | 0.3 | -0.1 | 0.1 | 1 | -0.2 | 1.1 | -0.3 | Nc1n[nH]c2nnc(-c3c(-c4ccccc4)nn4ccccc34)cc12
